The text below walks through data of patent US11786534B2 (TAIHO PHARMACEUTICAL CO., LTD., priority 2019, dated 2023).

Holding throughout (assay type): biochemical
In one assay the target is T1, human EGFR (WT) (Homo sapiens, UniProt P00533).
T1 construct: purchased Carna Biosciences Inc., Japan
Put plainly: Inhibitory activity against EGFR (WT) kinase. The protocol: The compounds of the present invention were measured for their inhibitory activity nainst EGFR (WT) kinase activity.
The materials, measurement procedures and data analysis method used in this test. are substantially the same as those shown in the section “Measurement of inhibitory activity against EGFR (d746-750/T790M/C797S) kinase.” However, among the materials, the kinase protein used was a purified recombinant human EGFR (WT) purchased from Carna Biosciences Inc., Japan. In the measurement procedures, the final concentration of ATP was set to 1.5 μM. Finally, data analysis was conducted to determine the IC50 value (nM) of each compound against EGFR (WT).
In accordance with the same procedures as shown in 5) in Test Example 1, the compounds of the present invention were measured for their inhibitory activity against. EGFR (WT) kinase activity.

The target of assay [1] is T2, human EGFR (d746-750/C797S) (Homo sapiens, UniProt P00533, C797S/DEL746-750).
T2 construct: purchased SignalChem
Put plainly: Inhibitory activity against EGFR (d746-750/C797S) kinase. The protocol:
3) Measurement of inhibitory activity against EGFR (d746-750/C797S) kinase
The compounds of the present invention were measured for their inhibitory activity against EGFR (d746-750/C797S) kinase activity.
The materials, measurement procedures and data analysis method used in this test are substantially the same as those shown in the section “Measurement of inhibitory activity aiainst EGFR (d746-750/T790M/C797S) kinase.” However, among the materials, the kinase protein used was a purified recombinant human EGFR (d746-750/C797S) protein purchased from SignalChem, while the kinase reaction buffer used was 13.5 mM Tris (pH 7.5) containing 2 mM dithiothreitol and 0.009% Tween-20. In the measurement procedures, the final concentration of ATP was set to 14 μM, the final concentration of maganesium chloride was set to 20 mM, the final concentration of manganese chloride was set to 12.5 mM, the incubation time for kinase reaction was set to 60 minutes, and the final concentration of EDTA used to stop the kinase reaction was set to 40 mM. Finally, data analysis was conducted to determine to IC50 value (nM) of each compound against EGFR (d746-750/C797S).
In accordance with the same procedures as shown in 3) in Test Example 1, the compounds of the present invention were measured for their inhibitory activity against EGFR (d746-750/C797S) kinase activity.

Assay [2] addresses T3, human EGFR (d746-750/T790M/C797S) (Homo sapiens, UniProt P00533, C797S/DEL746-750/T790M).
T3 construct: made in house; host or cells: Sf9 insect cells, baculovirus
The experiment in a line: Inhibitory activity against EGFR (d746-750/T790M/C797S) kinase. The protocol:
1) Measurement of inhibitory activity against EGFR (d746-750/T790M/C797S) kinase
The compounds of the above examples and comparative examples were measured for their inhibitory activity against EGFR (d746-750/T790M/C797S) kinase activity. Among the materials required for measurement of this inhibitory activity, the kinase protein (SEQ ID NO: 1) used was prepared as follows: the cytoplasmic domain of human EGFR (d746-750/T790M/C797S) fused at the ammo terminal end with a glutathione-S-transferase (GST) tag was expressed M insect cells (Sf9) by the baculovirus expression system and then purified an a glutathione sepharose column. For use as a substrate peptide, a peptide biotinylated at the N-terminal end (biotin -EEPLYWSFPAKKK) was synthesized by reference to Perkin Elmer LabChip® series reagent FL-Peptide 22.
Procedures for measurement of the inhibitory activity are as follows. First, the compounds of the present invention were each dissolved in dimethyl sulfoxide (DMSO), and their serial dilutions were then prepared with DMSO. Secondly, each compound serial dilution (final concentration of DMSO during kinase reaction: 2.5%) or DMSO (final concentration: 2.5%) was mixed with a solution containing the substrate peptide (final concentration: 250 nM), magnesium chloride (final concentration: 10 mM), manganese chloride (final concentration: 10 mM) and ATP (final concentration: 6 μM) in a kinase reaction buffer (Carna Biosciences Inc., Japan), and the EGFR (d746-750/T790M/C797S) protein was further added thereto, followed by incubation at 25° C. for 120 minutes to cause kinase reaction. To the reaction solution, EDTA was added to give a final concentration of 24 mM to thereby stop the reaction, followed by addition of a phospholylated tyrosine detection solution containing europium-labeled anti-phosphorylated tyrosine antibody PT66 (Perkin Elmer) and SureLight APC-SA (Perkin Elmer). The reaction solution was allowed to stand at room temperature for 2 hours or longer. As a background, DMSO was used instead of each compound solution in .DMSO, and EDIA was added prior to the addition of the EGFR EGFR (d746-750/T790M/C797S) protein, followed by incubation at 25° C. for 120 minutes. The same detection solution was also added to this reaction solution, which was then allowed to stand for 2 hours or longer. Finally, all the test samples were measured with a PHERAstar FS reader (BMG LABTECH) for their fluorescence intensity at two wavelengths of 620 nm and 665 nm upon irradiation with an excitation light of 337 nm wavelength, and the ratio of fluorescence intensities at these two wavelengths was obtained as data for each compound.
Moreover, as control compounds, the above Comparative Example A (Example 3 in WO2013/118817) and Comparative Example B (Example 35 in WO2013/118817) known to have EGFR inhibitory activity were used.
In accordance with the same procedures as shown in 1) in Test Example 1, the compounds of the above examples were measured for their inhibitory activity against EGFR (d746-750/T790M/C797S) kinase activity.

Assay [3] concerns the target T4, human EGFR (L858R/T790M/C797S) (Homo sapiens, UniProt P00533, C797S/L858R/T790M).
T4 construct: made in house; host or cells: Sf9 insect cells, baculovirus
Put plainly: Inhibitory activity against EGFR (L858R/T790M/C797S) kinase. The protocol:
2) Measurement of inhibitory activity against EGFR (L858R/T790M/C797S) kinase
The compounds of the presein invention were measured for their inhibitory activity against EGFR (L858R/T790M/C797S) kinase activity.
The materials, measurement procedures and data analysis method used in this test are substantially the same as those shown in the section “Measurement of inhibitory activity against EGFR (d746-750/T790M/C797S) kinase.” However, among the materials, the kinase protein (SEQ ID NO: 2) used was prepared as follows: the cytoplasmic domain of human EGFR (L858R/T790M/C797S) fused at the amino terminal end with a GST tag was expressed in insect cells (Sf9) by the baculovirus expression system and then purified on a glutathione sepharose column. In the measurement procedures, the final concentration of ATP was set to 0.5 μM. Finally, data analysis was conducted to determine the IC50 value (nM) of each compound against EGFR (L858R/T790M/C797S).
In accordance with the same procedures as shown in 2) in Test Example 1, the compounds of the present invention were measured for their inhibitory activity against EGFR (L858R/T790M/C797S) kinase activity.

Another assay deals with T5, human EGFR (L858R/C797S) (Homo sapiens, UniProt P00533, C797S/L858R).
T5 construct: purchased SignalChem
The experiment in a line: Inhibitory activity against EGFR (L858R/C797S) kinase. The following applies: Test Example 1, Table 5; ATP 4 μM, 90 minutes. The protocol:
4) Measurement of inhibitory activity against EGFR (L858R/C797S) kinase
The compounds of the present invention were measured for their inhibitory activity aeainst EGFR (L858R/C797S) kinase activity.
The materials, measurement procedures and data analysis method used in this test are stibstantially the same as those shown in the section “Measurement of inhibitory activity against EGFR (d746-750/C797S) kinase.” However, among the materials, the kinase protein used was a purified recombinant human EGFR (C797S/L858R) protein purchased from SignalChem. In the measurement procedures, the final concentration of ATP was set to 4 μM, and the incubation time for kinase reaction was set to 90 minutes. Finally, data analysis was conducted determine the IC50 value (nM) of each compound against EGFR (L858R/C797S).
In accordance with the same procedures as shown in 4) in Test Example 1, the compounds of the present invention were measured for their inhibitor activity against. EGFR (L858R/C797S) kinase activity.

[4] abbreviates: Test Example 1, Table 6, ATP 1.5 μM.
The mark [5] stands for this setting: Test Example 1, Table 4, ATP 14 μM, 60 minutes.
Setting [6] is: Test Example 1, Table 2, ATP 6 μM, 25° C., 120 minutes.
[7] abbreviates: Test Example 1, Table 3, ATP 0.5 μM.

SMILES strings stand for the structures. Where only a bound is given, the exact number is not on record here.

T2 sequence (P00533 with tags, fused parts or gaps DEL746-750/C797S): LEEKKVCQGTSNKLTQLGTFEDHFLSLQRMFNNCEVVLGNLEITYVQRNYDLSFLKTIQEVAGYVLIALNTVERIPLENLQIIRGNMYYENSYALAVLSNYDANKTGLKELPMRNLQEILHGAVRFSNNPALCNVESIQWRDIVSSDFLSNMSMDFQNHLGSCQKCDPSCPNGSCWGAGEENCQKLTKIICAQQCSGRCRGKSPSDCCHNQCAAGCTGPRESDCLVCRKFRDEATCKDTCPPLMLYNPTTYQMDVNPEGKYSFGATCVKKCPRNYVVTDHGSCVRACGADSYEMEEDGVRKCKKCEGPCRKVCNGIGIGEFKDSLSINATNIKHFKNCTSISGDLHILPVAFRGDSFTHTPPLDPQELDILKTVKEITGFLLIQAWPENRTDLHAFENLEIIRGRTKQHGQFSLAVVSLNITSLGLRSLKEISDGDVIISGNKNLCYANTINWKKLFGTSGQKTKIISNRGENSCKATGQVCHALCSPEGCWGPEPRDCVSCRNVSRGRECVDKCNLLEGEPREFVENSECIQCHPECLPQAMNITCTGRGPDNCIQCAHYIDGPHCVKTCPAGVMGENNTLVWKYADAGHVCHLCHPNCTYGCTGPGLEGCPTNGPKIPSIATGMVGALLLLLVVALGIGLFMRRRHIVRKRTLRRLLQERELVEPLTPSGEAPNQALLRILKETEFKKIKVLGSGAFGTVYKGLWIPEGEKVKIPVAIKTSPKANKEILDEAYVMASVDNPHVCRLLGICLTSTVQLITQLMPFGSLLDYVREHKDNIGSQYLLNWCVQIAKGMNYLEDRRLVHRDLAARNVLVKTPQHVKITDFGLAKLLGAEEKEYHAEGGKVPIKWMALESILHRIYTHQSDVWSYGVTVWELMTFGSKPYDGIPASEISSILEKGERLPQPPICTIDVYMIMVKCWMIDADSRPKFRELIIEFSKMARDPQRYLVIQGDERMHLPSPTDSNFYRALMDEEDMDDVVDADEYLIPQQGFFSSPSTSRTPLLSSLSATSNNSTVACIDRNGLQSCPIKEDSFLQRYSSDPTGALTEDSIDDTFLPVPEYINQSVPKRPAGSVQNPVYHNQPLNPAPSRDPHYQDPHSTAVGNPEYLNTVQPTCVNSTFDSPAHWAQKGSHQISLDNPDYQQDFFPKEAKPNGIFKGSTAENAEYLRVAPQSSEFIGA
T1 sequence (P00533 25-1210): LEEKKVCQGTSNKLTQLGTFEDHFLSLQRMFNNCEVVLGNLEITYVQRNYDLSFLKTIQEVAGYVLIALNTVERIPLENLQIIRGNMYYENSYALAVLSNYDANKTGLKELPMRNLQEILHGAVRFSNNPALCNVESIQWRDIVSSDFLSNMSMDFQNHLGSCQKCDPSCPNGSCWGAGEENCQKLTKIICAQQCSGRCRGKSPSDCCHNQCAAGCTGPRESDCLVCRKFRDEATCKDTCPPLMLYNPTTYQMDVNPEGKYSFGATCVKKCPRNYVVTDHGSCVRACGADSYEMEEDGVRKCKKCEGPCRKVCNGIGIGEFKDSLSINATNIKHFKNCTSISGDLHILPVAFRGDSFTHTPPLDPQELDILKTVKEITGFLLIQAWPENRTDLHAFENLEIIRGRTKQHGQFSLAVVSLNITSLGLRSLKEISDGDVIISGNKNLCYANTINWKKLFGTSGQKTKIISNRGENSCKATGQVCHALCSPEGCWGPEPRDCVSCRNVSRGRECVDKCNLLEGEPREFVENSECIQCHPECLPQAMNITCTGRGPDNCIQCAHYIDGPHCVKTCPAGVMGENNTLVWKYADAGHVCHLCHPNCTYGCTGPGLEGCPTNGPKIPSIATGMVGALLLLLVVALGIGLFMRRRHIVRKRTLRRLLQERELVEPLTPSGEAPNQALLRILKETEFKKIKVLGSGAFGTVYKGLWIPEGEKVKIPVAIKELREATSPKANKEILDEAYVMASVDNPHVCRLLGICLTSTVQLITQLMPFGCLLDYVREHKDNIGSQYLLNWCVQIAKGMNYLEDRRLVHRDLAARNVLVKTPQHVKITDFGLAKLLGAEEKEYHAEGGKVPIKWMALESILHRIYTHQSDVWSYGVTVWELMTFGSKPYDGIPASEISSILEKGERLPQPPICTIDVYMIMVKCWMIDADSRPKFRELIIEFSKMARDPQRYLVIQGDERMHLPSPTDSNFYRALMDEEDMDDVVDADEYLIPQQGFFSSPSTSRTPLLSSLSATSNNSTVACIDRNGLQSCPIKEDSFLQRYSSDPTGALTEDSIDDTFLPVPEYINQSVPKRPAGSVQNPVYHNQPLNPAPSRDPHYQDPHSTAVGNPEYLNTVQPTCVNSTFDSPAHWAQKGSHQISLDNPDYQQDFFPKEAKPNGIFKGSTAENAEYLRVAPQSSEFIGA
T5 sequence (P00533 25-1210 C797S/L858R): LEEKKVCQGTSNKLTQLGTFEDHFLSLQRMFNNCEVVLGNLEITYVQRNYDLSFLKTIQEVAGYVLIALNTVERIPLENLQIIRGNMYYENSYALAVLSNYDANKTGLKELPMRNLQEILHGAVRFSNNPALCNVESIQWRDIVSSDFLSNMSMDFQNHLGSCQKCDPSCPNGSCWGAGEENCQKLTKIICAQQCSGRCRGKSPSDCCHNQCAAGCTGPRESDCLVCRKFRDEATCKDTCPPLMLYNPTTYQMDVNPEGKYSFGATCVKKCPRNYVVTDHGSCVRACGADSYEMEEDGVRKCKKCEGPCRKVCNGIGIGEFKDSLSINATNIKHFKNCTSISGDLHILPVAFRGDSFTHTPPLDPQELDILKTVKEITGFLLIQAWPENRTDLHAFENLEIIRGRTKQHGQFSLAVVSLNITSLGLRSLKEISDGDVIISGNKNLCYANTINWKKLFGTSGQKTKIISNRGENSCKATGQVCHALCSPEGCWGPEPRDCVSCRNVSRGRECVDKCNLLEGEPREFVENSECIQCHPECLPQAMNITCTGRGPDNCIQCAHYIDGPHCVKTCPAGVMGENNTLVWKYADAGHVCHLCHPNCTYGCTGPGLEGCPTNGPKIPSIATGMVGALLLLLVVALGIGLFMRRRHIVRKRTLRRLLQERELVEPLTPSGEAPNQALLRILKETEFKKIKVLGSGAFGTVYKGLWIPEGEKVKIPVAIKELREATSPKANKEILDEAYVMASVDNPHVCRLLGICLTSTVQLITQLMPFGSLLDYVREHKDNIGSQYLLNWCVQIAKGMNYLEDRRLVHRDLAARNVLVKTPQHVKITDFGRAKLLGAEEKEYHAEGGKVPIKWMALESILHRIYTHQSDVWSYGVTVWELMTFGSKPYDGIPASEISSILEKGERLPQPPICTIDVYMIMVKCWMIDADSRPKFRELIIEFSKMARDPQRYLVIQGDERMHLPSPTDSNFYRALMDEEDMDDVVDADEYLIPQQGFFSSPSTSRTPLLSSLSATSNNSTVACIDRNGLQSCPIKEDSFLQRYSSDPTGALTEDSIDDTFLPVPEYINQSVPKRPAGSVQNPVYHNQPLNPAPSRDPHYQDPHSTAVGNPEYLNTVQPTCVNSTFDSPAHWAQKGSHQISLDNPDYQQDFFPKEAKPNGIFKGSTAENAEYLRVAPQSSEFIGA
T3 sequence (P00533 with tags, fused parts or gaps DEL746-750/T790M/C797S): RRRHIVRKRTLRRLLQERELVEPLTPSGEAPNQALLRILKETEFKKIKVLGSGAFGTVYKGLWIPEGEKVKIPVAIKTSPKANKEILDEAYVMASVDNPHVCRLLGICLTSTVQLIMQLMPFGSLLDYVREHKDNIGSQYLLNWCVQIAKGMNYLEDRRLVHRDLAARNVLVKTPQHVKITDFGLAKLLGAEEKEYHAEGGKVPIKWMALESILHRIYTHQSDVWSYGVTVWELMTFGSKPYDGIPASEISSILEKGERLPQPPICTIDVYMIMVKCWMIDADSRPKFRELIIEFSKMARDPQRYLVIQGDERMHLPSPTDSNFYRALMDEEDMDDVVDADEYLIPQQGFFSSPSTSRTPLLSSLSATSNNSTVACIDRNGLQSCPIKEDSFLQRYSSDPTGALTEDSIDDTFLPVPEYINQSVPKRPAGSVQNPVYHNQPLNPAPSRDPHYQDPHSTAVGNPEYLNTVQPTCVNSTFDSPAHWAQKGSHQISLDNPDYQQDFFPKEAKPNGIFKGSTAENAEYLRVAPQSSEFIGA
T4 sequence (P00533 with tags, fused parts or gaps T790M/C797S/L858R): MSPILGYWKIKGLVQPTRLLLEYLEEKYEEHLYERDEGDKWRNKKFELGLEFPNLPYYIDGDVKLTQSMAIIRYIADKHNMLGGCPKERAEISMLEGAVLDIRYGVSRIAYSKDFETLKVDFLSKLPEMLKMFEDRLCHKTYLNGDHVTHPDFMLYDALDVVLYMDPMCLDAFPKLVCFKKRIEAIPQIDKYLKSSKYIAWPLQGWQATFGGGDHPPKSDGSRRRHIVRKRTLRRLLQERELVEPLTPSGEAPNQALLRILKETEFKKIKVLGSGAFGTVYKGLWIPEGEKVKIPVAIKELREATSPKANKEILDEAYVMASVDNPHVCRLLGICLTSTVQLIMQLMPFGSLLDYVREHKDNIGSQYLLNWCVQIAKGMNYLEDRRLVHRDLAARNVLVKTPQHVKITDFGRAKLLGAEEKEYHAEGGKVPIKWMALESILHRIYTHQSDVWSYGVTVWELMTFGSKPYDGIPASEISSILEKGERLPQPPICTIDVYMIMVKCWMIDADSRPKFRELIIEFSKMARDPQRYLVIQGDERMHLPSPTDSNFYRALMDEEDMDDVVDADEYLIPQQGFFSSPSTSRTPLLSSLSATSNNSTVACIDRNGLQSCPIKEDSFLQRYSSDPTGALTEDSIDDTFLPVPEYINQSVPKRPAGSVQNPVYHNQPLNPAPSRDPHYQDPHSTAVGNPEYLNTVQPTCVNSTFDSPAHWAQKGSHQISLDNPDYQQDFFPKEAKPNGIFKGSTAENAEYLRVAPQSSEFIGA

For orientation: IC50 means the concentration needed to halve the response being measured. Read a high IC50 as lower potency. Turning to `C#Cc1c(-c2cnc3ccccc3c2)c2c(N)ncnc2n1C12CCC(NCC#N)(CC1)C2` [Example 4, 2-((4-(4-Amino-6-ethynyl-5-(quinolin-3-yl)-7H-pyrrolo[2,3-d]pyrimidin-7-yl)bicyclo-[2.2.1]heptan-1-yl)amino)acetonitrile], the IC50 stood at 2.9 nM on human EGFR (WT) (setting [4]); 1 nM in assay [1] (setting [5]); 0.36 nM in assay [2] (setting [6]); 0.38 nM in assay [3] (setting [7]); 1.5 nM against human EGFR (L858R/C797S).

Consider `C#Cc1c(-c2cnc3ccccc3c2)c2c(N)ncnc2n1C12CCC(NC(=O)c3ccnn3C)(CC1)CC2` [Example 6, N-(4-(4-Amino-6-ethynyl-5-(quinoiln-3-yl)-7H-pyrrolo[2,3-d]pyrimidin-7-yl)bicyclo-[2.2.2]octan-1-yl)-1-methyl-1H-pyrazole-5-carboxamide], for which the IC50 is 5.2 nM against human EGFR (WT) (setting [4]); 2.1 nM in assay [1] (setting [5]); under 0.3 nM in assay [2] (setting [6]); 0.7 nM in assay [3] (setting [7]); 4.6 nM on human EGFR (L858R/C797S).

Consider `C#Cc1c(-c2cnc3ccccc3c2)c2c(N)ncnc2n1C12CCC(CO)(CC1)C2` [Example 10], for which the IC50 was 1.1 nM on human EGFR (WT) (setting [4]); 0.62 nM in assay [1] (setting [5]); under 0.3 nM in assay [2] (setting [6]); 0.56 nM in assay [3] (setting [7]); 0.95 nM on human EGFR (L858R/C797S).

Turning to `C#Cc1c(-c2cnc3ccccc3c2)c2c(N)ncnc2n1C12CCC(N(C)C)(CC1)C2` [Example 11, 7-(4-(Dimethylamino)bicyclo[2.2.1]heptan-1-yl)-6-ethynyl-5-(quinolin-3-yl)-7H -pyrrolo[2,3-d]pyrimidine-4-amine], the IC50 on human EGFR (WT) (setting [4]) was 11 nM; in assay [1] (setting [5]), 1.6 nM; in assay [2] (setting [6]), under 0.3 nM; in assay [3] (setting [7]), 0.69 nM; against human EGFR (L858R/C797S), 2.4 nM.

Take `C#Cc1c(-c2cnc3ccccc3c2)c2c(N)ncnc2n1C12CCC(NC(=O)OCC)(CC1)C2` [Example 12, Ethyl (4-(4-amino-6-ethynyl-5-(quinolin-3-yl)-7H-pyrrolo[2,3-d]pyrimidin-7-yl) -bicyclo[2.2.1]heptan-1-yl)carbamate]: the IC50 at human EGFR (WT) (setting [4]) is 2.1 nM; in assay [1] (setting [5]), 2.4 nM; in assay [2] (setting [6]), under 0.3 nM; in assay [3] (setting [7]), 0.39 nM; against human EGFR (L858R/C797S), 3.8 nM.

For `C#Cc1c(-c2cnc3ccccc3c2)c2c(N)ncnc2n1C12CCC(NC(=O)c3cnc(Cl)cn3)(CC1)C2` [Example 15], the IC50 at human EGFR (WT) (setting [4]) is 1.5 nM; in assay [1] (setting [5]) it was 0.79 nM; in assay [2] (setting [6]), under 0.3 nM; in assay [3] (setting [7]) it was 0.52 nM; against human EGFR (L858R/C797S), 1 nM.

Consider `C#Cc1c(-c2cnc3ccccc3c2)c2c(N)ncnc2n1C12CCC(NC(=O)c3ccnn3CCOC)(CC1)C2` [Example 17, N-(4-(4-Amino-6-ethynyl-5-(quinolin-3-yl)-7H-pyrrolo[2,3-d]pyrimidin-7-yl)bicyclo-[2.2.1]heptan-1-yl)-1-(2-methoxyethyl)-1H-pyrazole-5-carboxamide], for which the IC50 at human EGFR (WT) (setting [4]) is 2.6 nM; in assay [1] (setting [5]), 0.61 nM; in assay [2] (setting [6]), under 0.3 nM; in assay [3] (setting [7]), 0.79 nM; on human EGFR (L858R/C797S), 0.66 nM.

Turning to `C#Cc1c(-c2cnc3ccccc3c2)c2c(N)ncnc2n1C12CCC(NC(=O)c3nccnn3)(CC1)C2` [Example 19, N-(4-(4-Amino-6-ethynyl-5-(quinolin-3-yl)-7H-pyrrolo[2,3-d]pyrimidin-7-yl)bicyclo-[2.2.1]heptan-1-yl)-1,2,4-triazine-3-carboxamide], the IC50 was 0.39 nM against human EGFR (WT) (setting [4]); under 0.3 nM in assay [1] (setting [5]); under 0.3 nM in assay [2] (setting [6]); under 0.3 nM in assay [3] (setting [7]); 0.3 nM against human EGFR (L858R/C797S).

As for `C#Cc1c(-c2cnc3ccccc3c2)c2c(N)ncnc2n1C12CCC(NC(=O)[C@@H]3CNCCO3)(CC1)C2` [Example 62, (S)-N-(4-(4-Amino-6-ethynyl-5-(quinolin-3-yl)-7H-pyrrolo[2,3-d]pyrimidin-7-yl) -bicyclo[2.2.1]heptan-1-yl)morpholine-2-carboxamide], the IC50 is 1.6 nM on human EGFR (WT) (Test Example 3, Table 12; same procedures as 5) in Test Example 1); 0.34 nM in assay [1] (Test Example 3, Table 10; same procedures as 3) in Test Example 1); under 0.3 nM in assay [2] (Test Example 3, Table 8; same procedures as 1) in Test Example 1); under 0.3 nM in assay [3] (Test Example 3, Table 9; same procedures as 2) in Test Example 1).
